This is an account of results in ChEMBL document CHEMBL4715814, “Design, synthesis and biological activity evaluation of novel 4-subtituted 2-naphthamide derivatives as AcrB inhibitors” (2018).

Active and inactive are the calls of the source. The calls are words filed in the database; no cut-off is given here.

Assay [1] deals with Escherichia coli. The assay can be described thus: Potentiation of TPP-induced antibacterial activity against AcrB deficient Escherichia coli BW25113 assessed as TPP MIC at 256 ug/ml incubated for 18 hrs under aerobic condition by checkerboard titration assay (reference value: 256 ug/ml). The class given is functional. The conditions noted are these: dose 256 µg/ml.
The subject of assay [2] is Escherichia coli. The assay can be described thus: Potentiation of TPP-induced antibacterial activity against AcrB deficient Escherichia coli BW25113 assessed as TPP MIC at 128 ug/ml incubated for 18 hrs under aerobic condition by checkerboard titration assay (reference value: 256 ug/ml). Type of assay: functional. As to conditions: dose 128 µg/ml.
Assay [3] deals with Escherichia coli. As to the kind of experiment: Potentiation of erythromycin-induced antibacterial activity against wild type Escherichia coli BW25113 assessed as erythromycin MIC at 256 ug/ml incubated for 18 hrs under aerobic condition by checkerboard titration assay (reference value: 128 ug/ml). As to conditions: dose 256 µg/ml. The class given is functional.
The test system of assay [4] is Escherichia coli. The assay can be described thus: Potentiation of erythromycin-induced antibacterial activity against AcrB deficient Escherichia coli BW25113 assessed as erythromycin MIC at 128 ug/ml incubated for 18 hrs under aerobic condition by checkerboard titration assay (reference value: 32 ug/ml). The class given is functional. As to conditions: dose 128 µg/ml.

For assay [5], the system named is Escherichia coli. The assay can be described thus: Potentiation of rifampicin-induced antibacterial activity against wild type Escherichia coli BW25113 assessed as rifampicin MIC at 128 ug/ml incubated for 18 hrs under aerobic condition by checkerboard titration assay (reference value: 16 ug/ml). As to conditions: dose 128 µg/ml. Type of assay: functional.
The subject of assay [6] is Escherichia coli. As to the kind of experiment: Potentiation of erythromycin-induced antibacterial activity against wild type Escherichia coli BW25113 assessed as erythromycin MIC at 128 ug/ml incubated for 18 hrs under aerobic condition by checkerboard titration assay (reference value: 128 ug/ml). The class given is functional. As to conditions: dose 128 µg/ml.
The subject of assay [7] is Escherichia coli. As to the kind of experiment: Potentiation of TPP-induced antibacterial activity against wild type Escherichia coli BW25113 assessed as TPP MIC at 128 ug/ml incubated for 18 hrs under aerobic condition by checkerboard titration assay (reference value: 1024 ug/ml). Type of assay: functional. As to conditions: dose 128 µg/ml.
In assay [8] the test system is Escherichia coli. The assay can be described thus: Potentiation of chloramphenicol-induced antibacterial activity against AcrB deficient Escherichia coli BW25113 assessed as chloramphenicol MIC at 128 ug/ml incubated for 18 hrs under aerobic condition by checkerboard titration assay (reference value: 2 ug/ml). The class given is functional. As to conditions: dose 128 µg/ml.

Assay [9] concerns Escherichia coli. The assay can be described thus: Potentiation of TPP-induced antibacterial activity against wild type Escherichia coli BW25113 assessed as TPP MIC at 256 ug/ml incubated for 18 hrs under aerobic condition by checkerboard titration assay (reference value: 1024 ug/ml). The conditions noted are these: dose 256 µg/ml. The class given is functional.
The test system of assay [10] is Escherichia coli. The assay can be described thus: Potentiation of rifampicin-induced antibacterial activity against wild type Escherichia coli BW25113 assessed as rifampicin MIC at 256 ug/ml incubated for 18 hrs under aerobic condition by checkerboard titration assay (reference value: 16 ug/ml). The class given is functional. As to conditions: dose 256 µg/ml.
Assay [11] relates to Escherichia coli. As to the kind of experiment: Potency index, ratio of A3 MIC to compound MIC for potentiation of erythromycin-induced antibacterial activity against Escherichia coli BW25113. Type of assay: functional.
The test system of assay [12] is Escherichia coli. The assay can be described thus: Antibacterial activity against Wild type Escherichia coli BW25113 assessed as inhibition of AcrB efflux pump by mesuring the glucose-induced nile red efflux at 200 uM preincubated with CCCP for 15 mins followed by compound addition after 15 mins nile red added and incubated for 3 hrs in shaker by fluorimetric analysis. The class given is functional, organism-based. As to conditions: time 195.0 min.

The subject of assay [13] is Escherichia coli. As to the kind of experiment: Antibacterial activity against wild type Escherichia coli BW25113 assessed as inhibition of bacterial growth at 256 ug/ml after 18 hrs by microtitre broth dilution assay. The class given is functional, organism-based. The conditions noted are these: dose 256.0 µg/ml. (Dilution methods test growth across graded concentrations, often in twofold steps.)

The subject of assay [14] is Cell membrane. As to the kind of experiment: Disruption of inner membrane potential in wild type Escherichia coli BW25113 at 512 ug/ml preincubated for 10 mins followed by glucose stimulation and CCCP addition by DiOC2 probe based fluorimetric analysis. Type of assay: subcellular. As to conditions: dose 512.0 µg/ml.
The test system of assay [15] is Escherichia coli. As to the kind of experiment: Potentiation of chloramphenicol-induced antibacterial activity against AcrB deficient Escherichia coli BW25113 assessed as chloramphenicol MIC at 256 ug/ml incubated for 18 hrs under aerobic condition by checkerboard titration assay (reference value: 2 ug/ml). Type of assay: functional. The conditions noted are these: dose 256 µg/ml.

Assay [16] deals with Escherichia coli. As to the kind of experiment: Potentiation of chloramphenicol-induced antibacterial activity against wild type Escherichia coli BW25113 assessed as chloramphenicol MIC at 256 ug/ml incubated for 18 hrs under aerobic condition by checkerboard titration assay (reference value: 16 ug/ml). The class given is functional. As to conditions: dose 256 µg/ml.
Assay [17] relates to Escherichia coli. As to the kind of experiment: Potentiation of erythromycin-induced antibacterial activity against wild type Escherichia coli BW25113 assessed as fold reduction in erythromycin MIC at 128 ug/ml incubated for 18 hrs under aerobic condition by checkerboard titration assay relative to erythromycin MIC alone. The class given is functional. The conditions noted are these: dose 128 µg/ml.

Assay [18] concerns Escherichia coli. As to the kind of experiment: Potentiation of erythromycin-induced antibacterial activity against AcrB deficient Escherichia coli BW25113 assessed as erythromycin MIC at 256 ug/ml incubated for 18 hrs under aerobic condition by checkerboard titration assay (reference value: 32 ug/ml). The conditions noted are these: dose 256 µg/ml. The class given is functional.

Assay [19] deals with Escherichia coli. As to the kind of experiment: Antibacterial activity against AcrB deficient Escherichia coli BW25113 assessed as inhibition of bacterial growth at 256 ug/ml after 18 hrs by microtitre broth dilution assay. Type of assay: functional, organism-based. The conditions noted are these: dose 256.0 µg/ml.
Assay [20] deals with Cell membrane. As to the kind of experiment: Induction of outer membrane permeabilization in wild type Escherichia coli BW25113 assessed as increase in nitrocefin hydrolysis at 512 ug/ml measured for 30 mins in presence of CCCP by spectrophotometry analysis. Type of assay: subcellular. The conditions noted are these: dose 512.0 µg/ml.
Assay [21] concerns Escherichia coli. The assay can be described thus: Potentiation of erythromycin-induced antibacterial activity against Escherichia coli BW25113 assessed as erythromycin MIC at 32 ug/ml incubated for 18 hrs under aerobic condition in presence of EDTA by checkerboard titration assay. The conditions noted are these: dose 32.0 µg/ml. The class given is functional, organism-based.

The test system of assay [22] is Escherichia coli. As to the kind of experiment: Potentiation of chloramphenicol-induced antibacterial activity against wild type Escherichia coli BW25113 assessed as chloramphenicol MIC at 128 ug/ml incubated for 18 hrs under aerobic condition by checkerboard titration assay (reference value: 16 ug/ml). Type of assay: functional. As to conditions: dose 128 µg/ml.

What is called MIC is the lowest concentration that inhibits growth of the organism. Turning to `CC(C)NCCOc1cc(C(N)=O)cc2ccccc12`, the MIC came out at 256 µg/mL in the assay with Escherichia coli [1]; 256 µg/mL in the assay with Escherichia coli [2]; 16 µg/mL in the assay on Escherichia coli [3]; 32 µg/mL in the assay on Escherichia coli [4]; 16 µg/mL with Escherichia coli [5]; 16 µg/mL in the assay with Escherichia coli [6]. For the same molecule, the MIC in the assay on Escherichia coli [7] turned out to be 1020 µg/mL; in the assay with Escherichia coli [8], 2 µg/mL; in the assay on Escherichia coli [9] it was 1020 µg/mL; in the assay on Escherichia coli [10], 16 µg/mL; in the assay on Escherichia coli [15], 2 µg/mL; with Escherichia coli [16], 16 µg/mL. Besides, the values for the MIC with Escherichia coli [18] and in the assay with Escherichia coli [22] were 32 µg/mL and 16 µg/mL, respectively. Moreover, the Ratio in the assay on Escherichia coli [11] came to 16. The result in the assay with Escherichia coli [12], in the assay with Escherichia coli [19] and in the assay on Escherichia coli [21] was Active. Also, the outcome in the assay on Escherichia coli [13], in the assay on Cell membrane [14] and in the assay with Cell membrane [20] was inactive. In the assay on Escherichia coli [17], the “fold change (FC)” value was 8.
